Test results: publication PMC3532212 (PLoS ONE, 2012)

How the values were obtained:
[1] = Plasma concentrations during escalating i.v. infusion in anesthetized rats; format: in vivo; conditions: male, Sprague Dawley, plasma, iv, anesthetized rat, FTY720 i.v.
Method: The cardiovascular effects of FTY720 and BAF312 were tested in anesthetized rats (180–200 g). In brief, male Sprague Dawley rats (Charles River) were anesthetized with Inactin (110 mg/kg i.p.) and a tracheotomy performed. The femoral artery and veins were catheterized for measurement of mean arterial pressure and heart rate, collection of blood samples at 20-min intervals (0.2 mL/sample), and for compound infusion/hydration as previously described, [24]; blood samples were also withdrawn in vehicle-treated control rats. FTY720, infused as a hydrochloride salt (0.1, 0.3, 1.0 mg/kg/20-min free base equivalent solubilized in a 100% PEG-400 vehicle), or BAF312 (0.5, 1.5, 5.0 mg/kg/20-min solubilized in a 100% PEG-400 vehicle) were administered via three escalating 20-min infusions (0.011 mL/min) followed by a 1-hr post-treatment period. A blood sample was withdrawn at 20, 40, 60, and 120-minutes for analysis of plasma concentrations of the parent compound, and in the case of FTY720, also the phosphorylated metabolite, (S)-FTY720-P. Statistical significance (p<0.05) was based on a t-test comparing treatment change from baseline (baseline was defined as the period from −30 to 0 minutes) vs. vehicle controls change from baseline at each timepoint without adjustment for multiple comparisons. In a separate group of anesthetized rats in which left ventricular (LV) contractility was also recorded with a Millar pressure transducer introduced into the left ventricle, BAF312 was infused in the same dosing regimen as the studies described above (0.5, 1.5, 5.0 mg/kg/20-min solubilized in a 100% PEG-400 vehicle) and effects on LV dP/dtmax were recorded.

[2] = system: conscious, telemetry-instrumented rats; assay: Telemetry-instrumented conscious rats, single oral dose hemodynamics; format: in vivo; conditions: conscious rat; for mean arterial pressure above baseline, 24-hr mean: vehicle 3.6±1.5
Method: (§1) Mean arterial pressure was assessed in conscious, freely moving male Sprague Dawley rats (n = 6–8/group; Charles River) instrumented with telemetry transmitters (DSI-Ponemah) and housed in metabolism cages as previously described, [26]. Tested compounds were solubilized in a 0.5% Methylcellulose/0.015% Tween 80 vehicle that was also dosed alone (p.o./QD, 5 mL/kg) as a control in the study. FTY720 was administered p.o. at 0.3, 1.0, 3.0, 10.0 mg/kg p.o. as a single dose or p.o./QD at 0.5, 1.5, and 5.0 mg/kg in a chronic study. BAF312 was administered p.o/QD at 0.3, 3.0, and 30 mg/kg as a single dose and in a chronic study. Mean arterial pressure and heart rate are shown as 1-hr and/or 24-hr mean values±SEM as described in the results. Blood samples in satellite rats were withdrawn at various timepoints as described in the results for analysis of plasma concentrations of the parent compound and, in the case of FTY720, also the phosphorylated metabolite, (S)-FTY720-P. Statistical analysis for the single-dose acute studies was based on one-way ANOVA to compare the treatment groups vs. vehicle for each time period after dosing (0–24 hrs, 24–48 hrs, and 48–72 hrs); statistical significance (p<0.05) was detected by Dunnett’s post-hoc test to compare treatment with vehicle controls. The statistical analysis in the chronic studies were based on one-way ANOVA with repeated measures to compare the treatment arms; statistical significance (p<0.05) was detected by Dunnett’s post-hoc test to compare treatment with vehicle controls.

[3] = Plasma concentrations in repeat-dosing study, satellite rats; format: in vivo, rat; conditions: for concentration at 0 h / concentration at 4 h / concentration at 8 h / concentration at 24 h: male, Sprague Dawley, rat, plasma, po, mean±SEM; for Plasma concentration at Tmax / Terminal plasma concentration at Tmax: satellite rats; for Plasma concentration at Tmax: day 1; for Terminal plasma concentration at Tmax: last day of study
Method: as §1

[4] = Heart tissue concentrations at the end of the repeat-dosing study; format: in vivo; conditions: rat
Method: In the repeat-dosing study with FTY720 (0.5, 1.5, and 5.0 mg/kg/d), plasma concentrations were also determined ( Table 3 ).

CCCCCCCCc1ccc(CCC(N)(CO)CO)cc1 [FTY720]
concentration at 20 min ([1]; end of 0.1 mg/kg/20 min infusion): 54 ± 9 nM
concentration at 40 min ([1]; end of 0.3 mg/kg/20 min infusion): 198 ± 13 nM
concentration at 60 min ([1]; end of 1.0 mg/kg/20 min infusion): 375 ± 46 nM
concentration at 120 min ([1]; end of 60-min post-treatment period): 121 ± 5 nM
mean arterial pressure above baseline, 24-hr mean ([2]; FTY720 3 mg/kg single oral dose, day 1): 13.5±1.8 mmHg
mean arterial pressure above baseline, 24-hr mean ([2]; FTY720 10 mg/kg single oral dose, day 1): 19.9±2.8 mmHg
heart rate change from baseline, 24-hr mean ([2]; FTY720 10 mg/kg single oral dose, day 1, vehicle 15±3): −13±6 beats/min
changes in heart rate vs vehicle after day 1 ([2]; FTY720 single oral dose, after day 1 up to 72 hours): not different from vehicle control rats
concentration at 0 h ([3]; 0.5 mg/kg/day, FTY720 0.5 mg/kg/d p.o., Terminal (last day)): 18 ± 2 nM
concentration at 4 h ([3]; 0.5 mg/kg/day, FTY720 0.5 mg/kg/d p.o., Terminal (last day), 4 hr post-dose): 24 ± 3 nM
concentration at 8 h ([3]; 0.5 mg/kg/day, FTY720 0.5 mg/kg/d p.o., Terminal (last day), 8 hr post-dose): 63 ± 37 nM
concentration at 24 h ([3]; 0.5 mg/kg/day, FTY720 0.5 mg/kg/d p.o., Terminal (last day), 24 hr post-dose): 40 ± 27 nM
concentration at 4 h ([3]; 0.5 mg/kg/day, FTY720 0.5 mg/kg/d p.o., Day 1, 4 hr post-dose): 9 ± 1 nM
concentration at 8 h ([3]; 0.5 mg/kg/day, FTY720 0.5 mg/kg/d p.o., Day 1, 8 hr post-dose): 13 ± 2 nM
concentration at 24 h ([3]; 0.5 mg/kg/day, FTY720 0.5 mg/kg/d p.o., Day 1, 24 hr post-dose): 8 ± 1 nM
concentration at 0 h ([3]; 1.5 mg/kg/day, FTY720 1.5 mg/kg/d p.o., Terminal (last day)): 58 ± 7 nM
concentration at 4 h ([3]; 1.5 mg/kg/day, FTY720 1.5 mg/kg/d p.o., Terminal (last day), 4 hr post-dose): 60 ± 6 nM
concentration at 8 h ([3]; 1.5 mg/kg/day, FTY720 1.5 mg/kg/d p.o., Terminal (last day), 8 hr post-dose): 81 ± 4 nM
concentration at 24 h ([3]; 1.5 mg/kg/day, FTY720 1.5 mg/kg/d p.o., Terminal (last day), 24 hr post-dose): 44 ± 5 nM
concentration at 4 h ([3]; 1.5 mg/kg/day, FTY720 1.5 mg/kg/d p.o., Day 1, 4 hr post-dose): 45 ± 4 nM
concentration at 8 h ([3]; 1.5 mg/kg/day, FTY720 1.5 mg/kg/d p.o., Day 1, 8 hr post-dose): 53 ± 9 nM
concentration at 24 h ([3]; 1.5 mg/kg/day, FTY720 1.5 mg/kg/d p.o., Day 1, 24 hr post-dose): 34 ± 4 nM
concentration at 0 h ([3]; 5 mg/kg/day, FTY720 5.0 mg/kg/d p.o., Terminal (last day)): 207 ± 27 nM
concentration at 4 h ([3]; 5 mg/kg/day, FTY720 5.0 mg/kg/d p.o., Terminal (last day), 4 hr post-dose): 229 ± 21 nM
concentration at 8 h ([3]; 5 mg/kg/day, FTY720 5.0 mg/kg/d p.o., Terminal (last day), 8 hr post-dose): 176 ± 37 nM
concentration at 24 h ([3]; 5 mg/kg/day, FTY720 5.0 mg/kg/d p.o., Terminal (last day), 24 hr post-dose): 134 ± 21 nM
concentration at 4 h ([3]; 5 mg/kg/day, FTY720 5.0 mg/kg/d p.o., Day 1, 4 hr post-dose): 98 ± 14 nM
concentration at 8 h ([3]; 5 mg/kg/day, FTY720 5.0 mg/kg/d p.o., Day 1, 8 hr post-dose): 102 ± 4 nM
concentration at 24 h ([3]; 5 mg/kg/day, FTY720 5.0 mg/kg/d p.o., Day 1, 24 hr post-dose): 17 ± 40 nM
Plasma concentration at Tmax ([3]; FTY720 0.5 mg/kg/d p.o.): 13 ± 2 nM
Terminal plasma concentration at Tmax ([3]; FTY720 0.5 mg/kg/d p.o.): 63 ± 37 nM
Plasma concentration at Tmax ([3]; FTY720 1.5 mg/kg/d p.o.): 53 ± 9 nM
Terminal plasma concentration at Tmax ([3]; FTY720 1.5 mg/kg/d p.o.): 81 ± 4 nM
Plasma concentration at Tmax ([3]; FTY720 5.0 mg/kg/d p.o.): 120 ± 17 nM
Terminal plasma concentration at Tmax ([3]; FTY720 5.0 mg/kg/d p.o.): 229 ± 21 nM
mean tissue concentration in heart ([4]; FTY720 0.5 mg/kg/d p.o.): 379 ng/g
mean tissue concentration in heart ([4]; FTY720 1.5 mg/kg/d p.o.): 490 ng/g
mean tissue concentration in heart ([4]; FTY720 5.0 mg/kg/d p.o.): 1848 ng/g
